The subject of data set [1] is MCF7, OVCAR3 and SQCC-Y1 cells. The experiment in a line: Growth inhibition, statements across the three human tumor cell lines. It is filed as cell-based. Particulars: co-treatment with paclitaxel, Table 1. The method, then: (§1) Cellular proliferation was quantified using [^3H] thymidine incorporation. Cells were plated in 96 well plates in media containing 10% fetal bovine serum (FBS) and allowed to adhere overnight. Cell medium was removed the following day and the indicated compounds were added to fresh medium supplemented with 10% of charcoal stripped FBS (HyClone). Compound-containing medium was renewed after 3 days exposure. After 6 day treatment, 4 μCi/ml of [^3H]thymidine (NEN Life Science Products) were added to each well for 2 to 4 hours. The cells were then trypsinized and harvested on GF/B glass fiber filters. [^3H]thymidine incorporated into the DNA was measured in a scintillation Topcount counter (Packard). The results were expressed as percent inhibition compared to the DMSO vehicle.

In data set [2] the test system is AP1 transcriptional activity. As to the kind of experiment: AP1 reporter assay, MCF7 cells with (AP1)5x-tk-Luc. It is filed as cell-based, human. As for the experimental part:
AP1 transcriptional activity was assessed in MCF7 cells stably transfected with (AP1)5x-tk-Luc reporter gene (IGBMC, France). (AP1)5x corresponds to the collagenase gene AP1 response element repeated 5 times in tandem, tk is the minimal thymidine kinase promoter, and Luc the coding sequence of the luciferase gene. MCF7 cells were plated in 12-well plates at a density of 400,000 cells per well in DMEM supplemented with 10% FBS and allowed to adhere overnight. The next day, the medium was removed, the cells were washed with PBS and supplemented with DMEM medium containing 0.5% of charcoal stripped FBS (HyClone). […] The luciferase activity was measured by using Luc-lite system from Packard according to manufacturer's recommendations. Results are expressed as percent activity compared to PMA (10 nM) which was assigned as 100% activity. The data presented are the mean ± sem (standard error of the mean)of 3 independent experiments.

Data set [3] deals with SQCC-Y1. As to the kind of experiment: Mitogenic assay, growth inhibition ([3H]-thymidine incorporation), retinoid/paclitaxel co-treatment. It is filed as cell-based, human. As for the experimental part:
as §1

Data set [4] deals with MCF7. Described as above. It is filed as cell-based, human. The method, then:
as §1

The test system of data set [5] is OVCAR3. The data set is described as above. It is filed as cell-based, human. As for the experimental part: as §1
Data set [6] relates to MCF7 cells. As to the kind of experiment: Anchorage-dependent colony formation assay. It is filed as cell-based, human. The conditions noted are these: for colony formation and morphology: 6 days exposure, crystal violet. As for the experimental part:
(§2) To determine effects of RAR agonists on anchorage-dependent colony size, number and morphology, MCF7 cells were plated in 6 well plates (500 cells/well) in DMEM supplemented with 10% FBS and grown for 5 days. The medium was then removed and the compounds were added to the medium supplemented with 5% of charcoal stripped FBS (HyClone). The compound containing medium was renewed after 3 days and cultures were allowed to grow an additional 3 days. After 6 days exposure to compounds, colonies were stained with crystal violet. Colonies were counted to quantify colony area and number and photographed under light microscopy to assess effects on colony size and morphology. The results presented are representative of two independent experiments. Immunoblotting MCF-7 cellular lysates were prepared for Western blotting in accordance with procedures described by Sambrook et al. (MOLECULAR CLONING: A LABORATORY MANUAL, 2nd Ed.; Cold Spring Harbor Laboratory Press, Cold Spring Harbor, N. Y. (1989)). Cell lysates were prepared by adding 200 μl of lysis buffer (Tris-HCl, pH 6.8, 20 mM, EDTA 1 mM, NP-40 0.5%) containing a protease inhibitor cocktail (Roche) to each well of 6 well plates. The lysates were then cleared by centrifugation at 10,000 rpm, 4EC for 5 minutes and supernatants were adjusted with Laemmli sample buffer and processed by 10 or 15% SDS-polyacrylamide gel electrophoresis (PAGE), followed by transfer to nitrocellulose membranes (Biorad). Membranes were processed by standard methods and incubated with primary antibodies for 1 hour at room temperature or overnight at 4EC. Bound antibody was visualized using a goat anti-IgG secondary antibody conjugated to HRP and a chemiluminescent detection system (ECL, Amersham Pharmacia Biotech).

Data set [7] deals with Bcl-2. As to the kind of experiment: Bcl-2 expression and phosphorylation (immunoblotting). Particulars: MCF7; single agent. It is filed as cell-based, human. As for the experimental part: as §2, with “The lysates were then cleared by centrifugation at 10,000 rpm, 4EC for 5 minutes and supernatants were adjusted with Laemmli sample buffer and processed by 10 or 15% SDS-polyacrylamide gel electrophoresis (PAGE), followed by transfer to nitrocellulose membranes (Biorad). Membranes were processed by standard methods and incubated with primary antibodies for 1 hour at room temperature or overnight at 4EC. Bound antibody was visualized using a goat anti-IgG secondary antibody conjugated to HRP and a chemiluminescent detection system (ECL, Amersham Pharmacia Biotech).” left out

The test system of data set [8] is tubulin. As to the kind of experiment: Tubulin polymerization assay in MCF7 cells. It is filed as cell-based, human. Particulars: single agent, Western blotting of soluble and polymerized tubulin.
Protocol: The effects of retinoid and paclitaxel exposure on free and polymerized tubulin levels were determined in accordance with procedures described by Giannakakou et al. (J. Biol. Chem. 1997 272:17118-17125). MCF7 cells were plated in 6 well plates in DMEM supplemented with 10% FBS and allowed to adhere overnight. Cell medium was removed the following day and the indicated compounds were added to fresh medium supplemented with 5% of charcoal stripped FBS (HyClone). The cells were grown for 3 days in the presence of the retinoids before paclitaxel was added for 1 hour. Soluble and polymerized tubulin were extracted and respective levels were assessed by Western blotting as described above using anti-(tubulin antibodies (n=2).
The test system of data set [9] is Jun N-terminal Kinase (JNK). The experiment in a line: Jun N-terminal Kinase assay (immunoprecipitated JNK from MCF7 cells). It is filed as cell-based, human. As for the experimental part:
Activity of JNK was measured in accordance with procedures described by Coso et al. (Cell 1995 81:1137-1146) with minor modifications. MCF-7 cells were plated in 6-well plates in DMEM supplemented with 10% FBS and allowed to adhere overnight. The next day, the cells were switched to DMEM supplemented with 0.5% charcoal-stripped FBS (HyClone) and 100 nM of indicated retinoids or 0.1% DMSO was added to the cells for 24 hours before an additional 2 to 3 hours incubation in the presence of 1 μM of paclitaxel. Cell lysates was prepared from each well as described and cleared by centrifugation. JNK was immunoprecipitated from each lysate by incubating overnight at 4° C. with 1 μg of anti-hJNK (Pharmingen) and 25 μl of protein G agarose beads (Gibco-BRL) previously washed with the lysis buffer. Immune complexes were pelleted by centrifugation 2 minutes at 10,000 rpm 4° C. and washed 3 times with PBS containing 1% NP40 and 2 mM of Na3VO4, once with 100 mM Tris-HCl pH7.5, 0.5 mM LiCl and once with Kinase Reaction Buffer (KRB: 12.5 mM MOPS pH7.5, 12.5 mM β-glycerolphosphate, 7.5 mM MgCl2, 0.5 mM EGTA, 0.5 mM NaF, 0.5 mM Na3VO4). […] The kinase reaction was terminated by adding 10 μl of Laemmli sample buffer. resolved by 10% SDS-PAGE and phosphorylated GST-c-Jun visualized by autoradiography and quantified by densitometry. […]

Where [10] appears, read: Homo sapiens, 144 h, maximal inhibition, paclitaxel co-treated with the labelled retinoid (none = paclitaxel alone), read-out: Efficacy (percent inhibition compared with DMSO).

Structures are written as SMILES.

In the case of `CC(C)(C)/C=C\C1=CCC(C)(C)c2ccc(/C=C/c3ccc(C(=O)O)cc3)cc21` [Formula Ia], the “effect on the effective dose of paclitaxel required to induce cytotoxicity” value in [1] is on record as “dramatically lowered the effective dose of paclitaxel required to induce cytotoxicity”. In addition, the inhibition at 0.05 µM in [2] (Homo sapiens, MCF7, at 50 nM, PMA 10 nM, 6 hours, read-out: inhibition of PMA-induced AP1 reporter activity, maximum) fell in the range of 30 to 45%. Moreover, the “decrease of the IC50 of paclitaxel in the presence of the retinoid” value in data set [3] was 32 fold; in data set [4], 8 fold; in [5], 15 fold. Besides, in data set [6] (MCF7), the “colony formation and morphology” value is “dramatic change in the morphology of both the colonies and the cells”.
With `CC(=O)O[C@H]1C(=O)[C@@]2(C)[C@H]([C@H](OC(=O)c3ccccc3)[C@]3(O)C[C@H](OC(=O)[C@H](O)[C@@H](NC(=O)c4ccccc4)c4ccccc4)C(C)=C1C3(C)C)[C@]1(OC(C)=O)CO[C@@H]1C[C@@H]2O` [paclitaxel], in [7], the “phosphorylation of Bcl-2” value is on record as “dose-dependent increase”. Also, the polymerization of tubulin entry in [8] is reported as “dose-dependent polymerization of tubulin”. For the same compound, in [2] (single agent, paclitaxel 1 μM, PMA 10 nM), the “enhancement of PMA-induced AP1 transcriptional activity” value amounted to 20%. In addition, the IC50 in data set [3] (Homo sapiens, 144 h, 6 day treatment, paclitaxel co-treated with the labelled retinoid (none = paclitaxel alone), mean of 2 to 5 experiments) amounted to 0.16 nM; in data set [5] (Homo sapiens, OVCAR-3, 144 h, 6 day treatment, paclitaxel co-treated with the labelled retinoid (none = paclitaxel alone), mean of 2 to 5 experiments) it was 0.6 nM. Further, the Emax in data set [3] (setting [10]) is 100%; in data set [4] (setting [10]), 100%; in data set [5] (Homo sapiens, OVCAR-3, 144 h, maximal inhibition, paclitaxel co-treated with the labelled retinoid (none = paclitaxel alone), read-out: Efficacy (percent inhibition compared with DMSO)), 99%. In addition, in data set [9] (single agent, paclitaxel 1 μM 2 to 3 hours, retinoids 100 nM 24 hours), the “increase in JNK activity” value was found to be 2.5 fold.
With `CC1=C(/C=C/C(C)=C/C=C/C(C)=C/C(=O)O)C(C)(C)CCC1` [ATRA, all trans retinoic acid], the “colony formation and morphology” value in data set [6] (MCF7) is “impaired colony formation”. Further, in [6] (MCF7 colonies), the “apoptosis in treated colonies” value is reported as “high level of apoptosis”.
For the compound `Cc1cccc(C2=CC(=O)C(C)(C)c3cc4ccc(-c5ccc(C(=O)O)cc5)cc4cc32)c1` [Formula II, 4-(5,6-dihydro-5,5-dimethyl-6-oxo-8-(3-methyl-phenyl)-anthracen-2-yl)-benzoic acid], in data set [1], the “effect on the effective dose of paclitaxel required to induce cytotoxicity” value was “lowered the effective dose of paclitaxel required to induce cytotoxicity”. The “effect on paclitaxel/PMA-induced AP1 activity” value in data set [2] (combination with paclitaxel) was “did enhance the effects of paclitaxel/PMA or AP1 activity”. Besides, the “colony formation and morphology” value in data set [6] (MCF7) is on record as “strongly impaired colony formation”. Besides, in data set [6] (MCF7, pre-treatment for three days), the “sensitivity of the cells to paclitaxel” value is “significantly enhanced the sensitivity of the cells to paclitaxel”. Further, the “effect on paclitaxel-induced JNK activity” value in data set [9] (combination with paclitaxel) is given as “did not modify paclitaxel-induced JNK activity”.
